The assay has as its target T1, CHLH (CHLH/ABAR) (Arabidopsis thaliana, UniProt Q9FNB0).
T1 construct: ORF in pFastBac HFT-B, Flag-tagged fusion, expressed in Sf9 insect cells; about 150 kDa; full length 1381 residues; amine-coupled on CM5 chip
T1 sequence (Q9FNB0 1-1381): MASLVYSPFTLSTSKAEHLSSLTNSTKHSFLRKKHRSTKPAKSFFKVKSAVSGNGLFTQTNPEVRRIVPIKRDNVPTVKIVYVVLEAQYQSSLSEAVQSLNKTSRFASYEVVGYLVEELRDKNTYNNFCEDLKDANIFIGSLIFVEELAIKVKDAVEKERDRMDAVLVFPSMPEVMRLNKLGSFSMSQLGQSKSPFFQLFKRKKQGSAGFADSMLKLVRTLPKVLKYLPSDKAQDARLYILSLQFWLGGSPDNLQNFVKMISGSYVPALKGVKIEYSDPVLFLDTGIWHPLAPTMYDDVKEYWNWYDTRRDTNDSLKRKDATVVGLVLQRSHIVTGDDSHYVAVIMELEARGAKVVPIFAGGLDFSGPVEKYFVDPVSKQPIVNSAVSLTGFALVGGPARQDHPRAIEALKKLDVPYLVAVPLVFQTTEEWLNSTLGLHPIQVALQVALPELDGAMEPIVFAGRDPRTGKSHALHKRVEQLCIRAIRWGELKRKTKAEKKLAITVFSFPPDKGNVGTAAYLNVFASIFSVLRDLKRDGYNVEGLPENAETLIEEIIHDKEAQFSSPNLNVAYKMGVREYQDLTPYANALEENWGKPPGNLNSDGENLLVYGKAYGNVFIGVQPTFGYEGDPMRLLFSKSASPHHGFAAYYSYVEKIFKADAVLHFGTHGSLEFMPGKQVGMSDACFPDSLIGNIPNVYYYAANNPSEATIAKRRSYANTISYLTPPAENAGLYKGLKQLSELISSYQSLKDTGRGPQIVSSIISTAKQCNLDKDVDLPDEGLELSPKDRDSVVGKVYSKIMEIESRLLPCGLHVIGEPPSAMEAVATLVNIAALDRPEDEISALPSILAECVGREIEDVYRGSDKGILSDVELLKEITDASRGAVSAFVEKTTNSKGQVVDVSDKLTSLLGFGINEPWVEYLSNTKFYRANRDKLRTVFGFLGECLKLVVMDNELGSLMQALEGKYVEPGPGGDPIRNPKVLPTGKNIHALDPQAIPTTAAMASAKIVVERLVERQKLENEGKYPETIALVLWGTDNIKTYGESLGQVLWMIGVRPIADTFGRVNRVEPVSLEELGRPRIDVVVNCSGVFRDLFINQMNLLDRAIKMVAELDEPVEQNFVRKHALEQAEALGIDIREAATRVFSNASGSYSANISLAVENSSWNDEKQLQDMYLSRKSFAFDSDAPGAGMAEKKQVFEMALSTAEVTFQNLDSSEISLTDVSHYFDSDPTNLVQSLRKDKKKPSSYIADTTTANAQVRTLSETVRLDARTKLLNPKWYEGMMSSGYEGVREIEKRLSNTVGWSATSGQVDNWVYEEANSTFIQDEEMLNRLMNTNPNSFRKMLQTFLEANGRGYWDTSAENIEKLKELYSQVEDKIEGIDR
The experiment in a line: SPR (Biacore T200, CM5 chip, protein immobilized by amine coupling), steady-state fit. The following applies: HBS-EP running buffer with EDTA, pH 7.4, 25 °C, 6-100 μM analyte; unreliable (authors attribute the low affinity to technical limits of SPR). It is filed as binding. On the technique in general: Surface plasmon resonance follows binding to a sensor surface in real time, without labels.

Broadly, the Kd is a measure of binding affinity in units of concentration. Read a low Kd as higher affinity.

On to `CC1=CC(=O)CC(C)(C)C1(O)/C=C/C(C)=C\C(=O)O` (stereo in doubt) [(+)-ABA], for which the Kd is 20 µM.

The values are drawn from publication PMC3472068, “Roles of the different components of magnesium chelatase in abscisic acid signal transduction” (Plant Molecular Biology, 2012).
